# In article PMC7914897, “Cytotoxic Potential of a-Azepano- and 3-Amino-3,4-SeCo-Triterpenoids” (International Journal of Molecular Sciences, 2021):
# Like-named read-outs stand apart in the source and are kept apart here.
# What was measured:
# CCRF-CEM (Leukemia) = experiment: NCI-60 screen (SRB, 48 h); conditions: Homo sapiens
# IGROV1 (Ovarian cancer) = experiment: NCI-60 screen (SRB, 48 h)
# Prostate cancer subpanel = experiment: NCI-60 screen, subpanel; conditions: Homo sapiens
# Leukemia subpanel = experiment: cells; conditions: Homo sapiens
# UACC-257 (Melanoma) = experiment: NCI-60 screen (SRB, 48 h); conditions: Homo sapiens
# HS 578T (Breast cancer) = experiment: NCI-60 screen (SRB, 48 h); conditions: Homo sapiens
# SK-MEL-28 (Melanoma) = experiment: NCI-60 screen (SRB, 48 h); conditions: Homo sapiens
# U251 (CNS cancer) = experiment: NCI-60 screen (SRB, 48 h); conditions: Homo sapiens
# [1] = test system: NCI-H322M (NSC lung cancer); experiment: NCI-60 screen (SRB, 48 h); conditions: Homo sapiens
# [2] = test system: MDA-MB-31/ATCC (Breast cancer); experiment: NCI-60 screen (SRB, 48 h); conditions: Homo sapiens
# OVCAR-3 (Ovarian cancer) = experiment: cells; conditions: Homo sapiens
# SN12C (Renal cancer) = experiment: NCI-60 screen (SRB, 48 h); conditions: Homo sapiens
# HCT-15 (Colon cancer) = experiment: NCI-60 screen (SRB, 48 h); conditions: Homo sapiens
# HT29 (Colon cancer) = experiment: NCI-60 screen (SRB, 48 h); conditions: Homo sapiens
# UO-31 (Renal cancer) = experiment: NCI-60 screen (SRB, 48 h); conditions: Homo sapiens
# [3] = test system: NCI/ADR-RES (Ovarian cancer); experiment: NCI-60 screen (SRB, 48 h); conditions: Homo sapiens
# BT-549 (Breast cancer) = experiment: NCI-60 screen (SRB, 48 h); format: cell-based; conditions: Homo sapiens
# [4] = test system: NCI-H23 (NSC lung cancer); experiment: NCI-60 screen (SRB, 48 h); conditions: Homo sapiens
# Colon Cancer subpanel = experiment: NCI-60 screen, subpanel; conditions: Homo sapiens
# [5] = test system: panel of approximately 60 cancer cell lines; experiment: NCI-60 screen (SRB, 48 h), full panel
# [6] = test system: A549/ATCC (NSC lung cancer); experiment: NCI-60 screen (SRB, 48 h); conditions: Homo sapiens
# LOX IMVI (Melanoma) = experiment: NCI-60 screen (SRB, 48 h); format: cell-based; conditions: Homo sapiens
# Breast cancer subpanel = experiment: NCI-60 screen, subpanel; conditions: Homo sapiens
# Melanoma subpanel = experiment: NCI-60 screen, subpanel; conditions: Homo sapiens
# DU-145 (Prostate cancer) = experiment: NCI-60 screen (SRB, 48 h); conditions: Homo sapiens
# RPMI-8226 (Leukemia) = experiment: NCI-60 screen (SRB, 48 h); conditions: Homo sapiens
# SK-MEL-2 (Melanoma) = experiment: NCI-60 screen (SRB, 48 h); conditions: Homo sapiens
# K-562 (Leukemia) = experiment: NCI-60 screen (SRB, 48 h); conditions: Homo sapiens, K562
smiles,measurement,setting,value
C=C(C)[C@@H]1CCC=C2CC[C@]3(C)[C@H](CC[C@@H]4[C@@]5(C)CCCNC(C)(C)[C@@H]5CC[C@]43C)[C@H]21 [Compound 8],GI50,CCRF-CEM (Leukemia),2.27 µM
same,IC (TGI),"CCRF-CEM (Leukemia); 48 h, read-out: TGI",5.63 µM
same,CC50,CCRF-CEM (Leukemia); read-out: LC50,> 100 µM
same,GI50,"IGROV1 (Ovarian cancer); Homo sapiens, IGROV-1",1.69 µM
same,IC (TGI),"IGROV1 (Ovarian cancer); Homo sapiens, IGROV-1, 48 h, read-out: TGI",3.28 µM
same,CC50,"IGROV1 (Ovarian cancer); Homo sapiens, IGROV-1, read-out: LC50",6.35 µM
same,Growth % of the Most Sensitive Cell Lines,"IGROV1 (Ovarian cancer); IGROV1, 1 dose 10 µM",−94.22%
same,IC (TGI),"Prostate cancer subpanel; 48 h, read-out: TGI MG_MID",3.2 µM
same,GI50,Prostate cancer subpanel; read-out: GI50 MG_MID,1.71 µM
same,CC50,Prostate cancer subpanel; read-out: LC50 MG_MID,5.97 µM
same,IC (TGI),"Leukemia subpanel; 48 h, read-out: TGI MG_MID",5.18 µM
same,GI50,Leukemia subpanel; read-out: GI50 MG_MID,1.48 µM
same,CC50,Leukemia subpanel; read-out: LC50 MG_MID,> 100 µM
same,GI50,UACC-257 (Melanoma); UACC-257,2.19 µM
same,IC (TGI),"UACC-257 (Melanoma); UACC-257, 48 h, read-out: TGI",4.29 µM
same,CC50,"UACC-257 (Melanoma); UACC-257, read-out: LC50",8.38 µM
same,GI50,HS 578T (Breast cancer),1.87 µM
same,IC (TGI),"HS 578T (Breast cancer); 48 h, read-out: TGI",4.39 µM
same,CC50,HS 578T (Breast cancer); read-out: LC50,15.9 µM
same,GI50,SK-MEL-28 (Melanoma); SK-MEL-28,1.81 µM
same,IC (TGI),"SK-MEL-28 (Melanoma); SK-MEL-28, 48 h, read-out: TGI",3.35 µM
same,CC50,"SK-MEL-28 (Melanoma); SK-MEL-28, read-out: LC50",6.18 µM
same,GI50,U251 (CNS cancer); U-251,1.76 µM
same,IC (TGI),"U251 (CNS cancer); U-251, 48 h, read-out: TGI",3.26 µM
same,CC50,"U251 (CNS cancer); U-251, read-out: LC50",6.07 µM
same,GI50,[1],1.73 µM
same,IC (TGI),"[1]; 48 h, read-out: TGI",3.14 µM
same,CC50,[1]; read-out: LC50,5.7 µM
same,GI50,[2],1.81 µM
same,IC (TGI),"[2]; 48 h, read-out: TGI",3.35 µM
same,CC50,[2]; read-out: LC50,6.2 µM
same,GI50,OVCAR-3 (Ovarian cancer); OVCAR-3,1.79 µM
same,IC (TGI),"OVCAR-3 (Ovarian cancer); OVCAR-3, 48 h, read-out: TGI",3.4 µM
same,GI50,SN12C (Renal cancer),1.79 µM
same,IC (TGI),"SN12C (Renal cancer); 48 h, read-out: TGI",3.31 µM
same,CC50,SN12C (Renal cancer); read-out: LC50,6.12 µM
same,GI50,HCT-15 (Colon cancer); HCT-15,1.44 µM
same,IC (TGI),"HCT-15 (Colon cancer); HCT-15, 48 h, read-out: TGI",2.84 µM
same,CC50,"HCT-15 (Colon cancer); HCT-15, read-out: LC50",5.59 µM
same,GI50,HT29 (Colon cancer); HT-29,1.2 µM
same,IC (TGI),"HT29 (Colon cancer); HT-29, 48 h, read-out: TGI",2.58 µM
same,CC50,"HT29 (Colon cancer); HT-29, read-out: LC50",5.56 µM
same,GI50,UO-31 (Renal cancer); UO-31,1.52 µM
same,IC (TGI),"UO-31 (Renal cancer); UO-31, 48 h, read-out: TGI",2.89 µM
same,CC50,"UO-31 (Renal cancer); UO-31, read-out: LC50",5.52 µM
same,GI50,[3],1.98 µM
same,IC (TGI),"[3]; 48 h, read-out: TGI",3.8 µM
same,CC50,[3]; read-out: LC50,7.3 µM
same,GI50,BT-549 (Breast cancer); BT-549,1.68 µM
same,IC (TGI),"BT-549 (Breast cancer); BT-549, 48 h",3.23 µM
same,GI50,[4]; NCI-H23,1.83 µM
same,IC (TGI),"[4]; NCI-H23, 48 h, read-out: TGI",3.4 µM
same,IC (TGI),"Colon Cancer subpanel; 48 h, read-out: TGI MG_MID",3.02 µM
same,GI50,Colon Cancer subpanel; read-out: GI50 MG_MID,1.51 µM
same,CC50,Colon Cancer subpanel; read-out: LC50 MG_MID,5.87 µM
same,Positive Cytostatic Effect (cell lines with percent growth 0 to 50 / total),[5]; 1 dose 10 µM,7/60
same,Positive Cytotoxic Effect (cell lines with percent growth < 0 / total),[5]; 1 dose 10 µM,49/60
same,number of cancer cell lines the compound was active against,[5]; 1 dose 10 µM,55 cell lines
same,activity at 10 µM,"[5]; Homo sapiens, 48 h, read-out: Mean Growth, %",-46.7%
same,activity at 10 µM,"[5]; Homo sapiens, 48 h, read-out: Range of Growth, %",-99.5 to 75.9%
same,IC (TGI),"[5]; Homo sapiens, 48 h, read-out: TGI MG_MID60, average over all cell lines",3.53 µM
same,GI50,"[5]; Homo sapiens, read-out: GI50 MG_MID60",1.73 µM
same,GI50,"[5]; Homo sapiens, read-out: GI50 against all human tumor cell lines",< 3 µM
same,GI50,"[5]; Homo sapiens, read-out: GI50 against the most sensitive cell lines",0.2 to 0.94 µM
same,GI50,[6]; A549,2.02 µM
same,IC (TGI),"[6]; A549, 48 h, read-out: TGI",3.73 µM
same,CC50,"[6]; A549, read-out: LC50",6.89 µM
same,IC (TGI),LOX IMVI (Melanoma); 48 h,3.16 µM
same,activity at 10 µM,"LOX IMVI (Melanoma); 48 h, 1 dose 10 µM, read-out: Growth % of the Most Sensitive Cell Lines",-99.5%
same,GI50,LOX IMVI (Melanoma); read-out: GI50,1.67 µM
same,IC (TGI),"Breast cancer subpanel; 48 h, read-out: TGI MG_MID",3.47 µM
same,GI50,Breast cancer subpanel; read-out: GI50 MG_MID,1.71 µM
same,CC50,Breast cancer subpanel; read-out: LC50 MG_MID,8.38 µM
same,IC (TGI),"Melanoma subpanel; 48 h, read-out: TGI MG_MID",3.46 µM
same,GI50,Melanoma subpanel; read-out: GI50 MG_MID,1.84 µM
same,CC50,Melanoma subpanel; read-out: LC50 MG_MID,6.73 µM
same,GI50,DU-145 (Prostate cancer); DU-145,1.77 µM
same,IC (TGI),"DU-145 (Prostate cancer); DU-145, 48 h, read-out: TGI",3.33 µM
same,CC50,"DU-145 (Prostate cancer); DU-145, read-out: LC50",6.26 µM
same,GI50,RPMI-8226 (Leukemia); RPMI-8226,2.26 µM
same,IC (TGI),"RPMI-8226 (Leukemia); RPMI-8226, 48 h, read-out: TGI",4.73 µM
same,GI50,SK-MEL-2 (Melanoma); SK-MEL-2,2.01 µM
same,IC (TGI),"SK-MEL-2 (Melanoma); SK-MEL-2, 48 h, read-out: TGI",3.69 µM
same,CC50,"SK-MEL-2 (Melanoma); SK-MEL-2, read-out: LC50",6.8 µM
same,GI50,K-562 (Leukemia),0.32 µM
